Measurements reported in US12410323B2, “Potent antifouling agents albofungins target multiple fouling organisms” (The Hong Kong University of Science and Technology, priority 2021, dated 2025).
≈ marks a conversion by molar mass, not a printed value. Where two headings read alike, the source gives them in different places.

Key:
[1] = test system: Enterobacter cloacae NRRL-B-425; test: Biofilm inhibition assay (MTT), pathogenic bacteria; format: cell-based; conditions: lowest concentration inhibiting 90% of biofilm formation
Protocol: (§1) The ability of the bacteria to form static biofilms was tested. Marine bacteria were cultured overnight in marine broth at 22° C. with 220 rpm agitation (Pseudomonas pachastrellae MCCC 1A01390, Sulfitobacter pontiacus MCCC 1A04899 and Psychrobacter nivimaris MCCC 1A 11723) and at 30° C. (Staphylococcus aureus B04, Staphylococcus sp. Z01 and Micrococcus sp. Z02) and then diluted to 10^7 CFU mL^−1 in marine broth supplemented with 1% of glucose; pathogenic bacteria was cultured overnight in LB broth with 1% glucose with 220 rpm at 37° C. Afterwards, 200 μL of the diluted solution were added to each well of a 96-well plate (Corning Inc., New York, USA) and was then incubated at 22° C. or 30° C. for 24 h. The culture medium, planktonic cells and loosely adhered bacteria were removed by dual washing with a phosphate-buffered saline (PBS) buffer, and the firmly attached bacteria were incubated with 20 μL of MTT (5 mg mL^−1) at 37° C. for 3 h. The supernatant was discarded, and formazan was dissolved in 150 μL of DMSO. Absorbance was measured using the Multiskan™ FC microplate photometer (Thermo Fisher Scientific, Waltham, USA) under 570 nm, and MRSA ATCC 43300 was used as a positive control. All the experiments were performed in triplicate.
(§2) The antibacterial activities of albofungins were tested following specific protocols (She et al., 2020). Marine broth was used as the test medium for the marine bacteria, and the MHB broth was used as the test medium for the pathogenic bacteria. The plate was kept at 22° C. or 30° C. overnight, and the minimum inhibitory concentration (MIC) is the lowest concentration that the drug prevents the visible growth of bacteria. The bacteria which have successfully formed biofilms were further used for antibiofilm formation assays. Different concentrations of albofungin compounds were added to each well. Biofilm formation was assessed through the MTT assay as previously described. […] Data were analyzed using one-way ANOVA to detect significant differences and standard deviation (SD) was calculated using GraphPad Prism 9. All the assays were performed in triplicate.

[2] = test system: Acinetobacter baumannii B-65371; test: as above; format: cell-based; conditions: lowest concentration inhibiting 90% of biofilm formation
Protocol: as §1, §2

[3] = test system: Staphylococcus aureus 04; test: Bacterial growth inhibition (antibacterial assay, MIC); format: cell-based; conditions: marine broth, overnight
Protocol: as §2

[4] = test system: Micrococcus sp. Z02; test: as above; format: cell-based; conditions: marine broth, overnight
Protocol: as §2

[5] = test system: Staphylococcus sp. Z01; test: as above; format: cell-based; conditions: marine broth, overnight
Protocol: as §2

[6] = test system: MCCC 1A04899 Sulfitobacter pontiacus; test: as above; format: cell-based
Protocol: as §2

[7] = test system: MCCC 1A11723 Psychrobacter nivimaris; test: as above; format: cell-based; conditions: marine broth, overnight
Protocol: as §2

[8] = test system: MCCC 1A01390 Pseudomonas pachastrellae; test: as above; format: cell-based; conditions: Halopseudomonas pachastrellae; marine broth, overnight
Protocol: as §2

[9] = test system: barnacle Amphibalanus amphitrite larvae; test: Anti-larval settlement bioassay, barnacle; format: in vivo; conditions: for EC50: Amphibalanus amphitrite, larval settlement, 48 h at 25° C., read-out: EC50; for settlement rate compared with control group (0.1% DMSO in FSW): after 48 h of incubation
Protocol: (§3) A. amphitrite adults were collected from Pak Sha Wan Pier, Hong Kong (22° 38′N, 114° 28′E) and after keeping in the dark for 24 h, a light source was used to stimulate the larval release. Within 1 h, the larvae were collected and cultured in 0.22 μm filtered seawater with a daily diet of Chaetoceros gracilis Schutt at 1×10^6 cells mL^−1 until their growth into cyprids, which were used for the anti-larval settlement bioassay. The bryozoan B. neritina adults were collected from a fish farm in Pak Shek Kok, Hong Kong (22° 43′N, 114° 20′E) and kept in flow-through seawater for no more than 7 days before use. The larvae were released within 30 minutes before the bioassay as described (Xu et al., 2010). The bioassay was conducted in a 24-well polystyrene tissue culture plate with 15-20 larvae in each well. 0.1% of DMSO in filtered seawater (FSW), and 0.625, 1.25, 2.5, 5, 10, 20, and 40 μg mL^−1 albofungin concentrations were tested in triplicate. In each well, 1 mL of FSW containing 15-20 larvae and 1 mL of albofungin solution of different concentrations. The plate was kept for 48 h at 25° C. (bryozoan B. neritina larvae were kept for 3 h). The wells with 0.1% of DMSO in FSW served as a negative control, and butenolide was used as a positive control. The number of attached, swimming, and dead larvae were counted under an Olympus optical microscope (Olympus Corporation, Tokyo, Japan). The settlement rate was calculated as the ratio of settled larvae to the total number of larvae in each well, and the death rate was calculated as the ratio of dead or missing larvae to the total number of larvae in each well. Half maximal effective concentration (EC50) and half lethal concentration (LC50) were determined for each compound, and the ratio of LC50/EC50 was used to evaluate the toxicity of the antifoulant. Experiments were performed in triplicate. Data were analyzed by one-way ANOVA to detect significant differences in the larval settlement, and SD was calculated by GraphPad Prism 9.

[10] = Anti-larval settlement bioassay, barnacle; format: in vivo, Amphibalanus amphitrite; conditions: Amphibalanus amphitrite (barnacle), cyprid larvae, in vivo; larval mortality, 48 h at 25° C.
Protocol: as §3

[11] = test system: MRSA ATCC 43300; test: Biofilm inhibition assay (MTT), pathogenic bacteria; format: cell-based, Staphylococcus aureus; conditions: lowest concentration inhibiting 90% of biofilm formation
Protocol: as §1
as §2, with “All the assays were performed in triplicate.” left out

[12] = test system: Staphylococcus aureus 04; test: Biofilm inhibition assay (MTT), marine bacteria; format: cell-based; conditions: lowest concentration inhibiting 90% of biofilm formation; 24 h
Protocol: as §1, §2

[13] = test system: Micrococcus sp. Z02; test: Biofilm inhibition assay (MTT), marine bacteria; format: cell-based; conditions: lowest concentration inhibiting 90% of biofilm formation; 24 h
Protocol: as §1, §2

[14] = test system: Staphylococcus sp. Z01; test: Biofilm inhibition assay (MTT), marine bacteria; format: cell-based; conditions: lowest concentration inhibiting 90% of biofilm formation; 24 h
Protocol: as §1, §2

[15] = test system: MCCC 1A04899 Sulfitobacter pontiacus; test: Biofilm inhibition assay (MTT), marine bacteria; format: cell-based; conditions: lowest concentration inhibiting 90% of biofilm formation; 24 h
Protocol: as §1, §2

[16] = test system: MCCC 1A11723 Psychrobacter nivimaris; test: Biofilm inhibition assay (MTT), marine bacteria; format: cell-based; conditions: lowest concentration inhibiting 90% of biofilm formation; 24 h
Protocol: as §1, §2

[17] = test system: MCCC 1A01390 Pseudomonas pachastrellae; test: Biofilm inhibition assay (MTT), marine bacteria; format: cell-based; conditions: lowest concentration inhibiting 90% of biofilm formation; 24 h
Protocol: as §1, §2

Row | Compound | MBIC90 [1] [µg/mL] | MBIC90 [2] [µg/mL] | MIC [3] [mg/L] | MIC [4] [mg/L] | MIC [5] [mg/L] | MIC ([6]; marine broth, overnight, read-out: MIC) [mg/L] | MIC [7] [mg/L] | MIC [8] [mg/L] | EC50 [9] [mg/L] | settlement rate compared with control group (0.1% DMSO in FSW) [9] | LC50 at 48 h [10] [mg/L] | MBIC90 [11] [µg/mL] | MBIC90 [12] [ng/mL] | MBIC90 [13] [ng/mL] | MBIC90 [14] [ng/mL] | MBIC90 [15] [µg/mL] | MBIC90 [16] [µg/mL] | MBIC90 [17] [µg/mL] | MIC [6] [mg/L]
1 | CO[C@@H]1CC[C@H](O)c2c1oc1c3c4c(c(O)c1c2=O)-c1c(cc2cc(C)[nH]c(=O)c2c1O)C[C@H]4OCO3 [Chrestoxanthone A (4), chrestoxanthone A] | >10 | 1.25 to 2.5 | 0.0125 (≈ 0.0247 µM) | 0.0125 (≈ 0.0247 µM) | 0.0016 (≈ 0.00317 µM) | 20 (≈ 39.6 µM) | > 20 | > 20 | > 36.8 | did not cause significant difference | > 100 | 0.13 to 0.25 | 62.5 to 125 | 125 to 250 | 5 to 10 | 10 to 20 | >20 | >20 | 
2 | CO[C@@H]1CC[C@H](O)c2c1oc1c3c4c(c(O)c1c2=O)-c1c(cc2c(Cl)c(C)n(N)c(=O)c2c1O)C[C@H]4OCO3 [Chloroalbofungin (3), chloroalbofungin] |  |  | 0.0125 (≈ 0.0225 µM) | 0.05 (≈ 0.0901 µM) | 0.0016 (≈ 0.00288 µM) |  | > 20 | > 20 | 35 (≈ 63.1 µM) | did not cause significant difference | > 100 |  | 250 to 500 | 250 to 500 | 100 to 200 | 10 to 20 | >20 | >20 | > 20
